Reference: US20230085307A1, “PYRIDAZINONE COMPOUND AND HERBICIDE” (NISSAN CHEMICAL CORPORATION, priority 2019, published 2023)

Tests used:
[1] = system: Japanese bulrush; test: Test Example 1: herbicidal activity, application before weed generation under submerged conditions (Table 16, symbol B); type: in vivo, Japanese bulrush (Schoenoplectus juncoides); details: 320 g/ha applied herbicide
Outline: (§1)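 Submerged Wagner pots (alluvial soil, 4 cm water) sown with weed seeds and planted with 2.5-leaf rice seedlings; emulsifiable concentrate diluted in water applied to water surface on sowing day. Held in greenhouse at 25-30 °C; injury scored 0-5 by herbicidal rate after three weeks.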

[2] = system: barnyard grass; test: Test Example 3: herbicidal effect by foliage application, Wagner pot (Table 18, symbol H); type: in vivo, barnyard grass (Echinochloa crus-galli)
Outline: (§2)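 Plants were sown in alluvial soil held under 0.1–0.5 cm standing water and grown 14 days in a greenhouse at 25–30 °C. An emulsifiable formulation, water-diluted to the set dose, was then sprayed onto the foliage, and effects were scored three weeks later using previously defined criteria.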

[3] = system: wild oat; test: Test Example 4: herbicidal effect by soil treatment (Table 19, symbol I); type: in vivo, wild oat (Avena fatua); details: amount of applied herbicide 320 g/ha
Outline: (§3)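 Pre-emergence style soil spray: seeds under ~1.5 cm sterilized diluvial soil received a uniform coat of emulsion diluted to the predetermined herbicide amount. Greenhouse 25–30° C; readout at week three on previously defined criteria.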

[4] = system: southern crabgrass; test: Test Example 4: herbicidal effect by soil treatment (Table 19, symbol F); type: in vivo, southern crabgrass (Digitaria ciliaris); details: amount of applied herbicide 320 g/ha
Outline: as §3

[5] = system: Japanese bulrush; test: Test Example 2: herbicidal activity, application during weed generation under submerged conditions (Table 17, symbol B); type: in vivo, Japanese bulrush (Schoenoplectus juncoides); details: AAH 320 g/ha; application during weed generation, submerged conditions
Outline: (§4)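 Wagner pot, alluvial soil, 4 cm flood; mixed sowing of all species; greenhouse 25° C.–30° C. Emulsifiable formulation, water-diluted to predetermined dose, applied to paddy water at 1–2 leaf stage. Effect rated at 3 wk using the earlier test's scoring criteria.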

[6] = system: lambsquarters; test: Test Example 4: herbicidal effect by soil treatment (Table 19, symbol O); type: in vivo, lambsquarters (Chenopodium album); details: amount of applied herbicide 320 g/ha
Outline: as §3

[7] = system: oval-leafed pondweed; test: Test Example 1: herbicidal activity, application before weed generation under submerged conditions (Table 16, symbol C); type: in vivo, oval-leafed pondweed (Monochoria vaginalis); details: 320 g/ha applied herbicide
Outline: as §1

[8] = system: rice flat sedge; test: Test Example 3: herbicidal effect by foliage application, Wagner pot (Table 18, symbol E); type: in vivo, rice flat sedge (Cyperus iria)
Outline: as §2

[9] = system: redroot pigweed; test: Test Example 4: herbicidal effect by soil treatment (Table 19, symbol N); type: in vivo, redroot pigweed (Amaranthus retroflexus); details: amount of applied herbicide 320 g/ha
Outline: as §3

[10] = system: Italian ryegrass; test: Test Example 4: herbicidal effect by soil treatment (Table 19, symbol K); type: in vivo, Italian ryegrass (Lolium multiflorum); details: amount of applied herbicide 320 g/ha
Outline: as §3

[11] = system: green foxtail; test: Test Example 4: herbicidal effect by soil treatment (Table 19, symbol G); type: in vivo, green foxtail (Setaria viridis); details: amount of applied herbicide 320 g/ha
Outline: as §3

[12] = system: windgrass; test: Test Example 4: herbicidal effect by soil treatment (Table 19, symbol L); type: in vivo, windgrass (Apera spica-venti); details: amount of applied herbicide 320 g/ha
Outline: as §3

[13] = system: velvetleaf; test: Test Example 4: herbicidal effect by soil treatment (Table 19, symbol M); type: in vivo, velvetleaf (Abutilon theophrasti); details: amount of applied herbicide 320 g/ha
Outline: as §3

[14] = system: persian speedwell; test: Test Example 4: herbicidal effect by soil treatment (Table 19, symbol R); type: in vivo, Persian speedwell (Veronica persica); details: amount of applied herbicide 320 g/ha
Outline: as §3

[15] = system: barnyard grass; test: Test Example 4: herbicidal effect by soil treatment (Table 19, symbol H); type: in vivo, barnyard grass (Echinochloa crus-galli); details: amount of applied herbicide 320 g/ha
Outline: as §3

[16] = system: Chinese sprangletop; test: Test Example 3: herbicidal effect by foliage application, Wagner pot (Table 18, symbol D); type: in vivo, chinese sprangletop (Leptochloa chinensis)
Outline: as §2

[17] = system: oval-leafed pondweed; test: Test Example 2: herbicidal activity, application during weed generation under submerged conditions (Table 17, symbol C); type: in vivo, oval-leafed pondweed (Monochoria vaginalis); details: AAH 320 g/ha; application during weed generation, submerged conditions
Outline: as §4

[18] = system: blackgrass; test: Test Example 4: herbicidal effect by soil treatment (Table 19, symbol J); type: in vivo, blackgrass (Alopecurus myosuroides); details: amount of applied herbicide 320 g/ha
Outline: as §3

[19] = system: late watergrass; test: Test Example 2: herbicidal activity, application during weed generation under submerged conditions (Table 17, symbol A); type: in vivo, late watergrass (Echinochloa oryzicola); details: AAH 320 g/ha; application during weed generation, submerged conditions
Outline: as §4

[20] = system: chickweed; test: Test Example 4: herbicidal effect by soil treatment (Table 19, symbol P); type: in vivo, common chickweed (Stellaria media); details: amount of applied herbicide 320 g/ha
Outline: as §3

[21] = system: late watergrass; test: Test Example 1: herbicidal activity, application before weed generation under submerged conditions (Table 16, symbol A); type: in vivo, late watergrass (Echinochloa oryzicola); details: 320 g/ha applied herbicide
Outline: as §1

[22] = system: blackgrass; test: Test Example 5: herbicidal effect by foliage application, plastic box (Table 20, symbol J); type: in vivo, blackgrass (Alopecurus myosuroides); details: foliage application, 320 g/ha, three weeks after application
Outline: (§5)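 Plants were sown into sterilized diluvial soil under about 1.5 cm cover and kept in a greenhouse at 25° C. to 30° C. Fourteen days on, foliage received an even spray of the diluted emulsion. Herbicidal or crop effect was judged three weeks afterwards.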

[23] = system: false cleavers; test: Test Example 4: herbicidal effect by soil treatment (Table 19, symbol Q); type: in vivo, false cleavers (Galium spurium); details: amount of applied herbicide 320 g/ha
Description: [Test Example 4] Herbicidal Effect Test by Soil Treatment
Sterilized diluvial soil was placed in a plastic box having a length of 21 cm, a width of 13 cm, and a depth of 7 cm. The seeds of each of southern crabgrass, green foxtail, barnyard grass, wild oat, blackgrass, Italian ryegrass, windgrass, velvetleaf, redroot pigweed, lambsquarters, chickweed, false cleavers, persian speedwell, corn, soybean, rice, wheat, beet, and rapeseed were sowed in a spot-like manner and covered with the soil having a thickness of about 1.5 cm. Subsequently, the emulsion agent of the compound of the present invention prepared according to Formulation Example 2 was diluted with water so as to achieve a predetermined herbicide amount, and the diluted emulsion agent was uniformly applied to the surface of the soil with a small-sized spray. The plastic box was placed in a greenhouse at 25° C. to 30° C. for growth of the plants. Three weeks after the herbicide application, the effect of the herbicide on each plant was evaluated according to the criteria of Test Example 1.

[24] = system: Italian ryegrass; test: Test Example 5: herbicidal effect by foliage application, plastic box (Table 20, symbol K); type: in vivo, Italian ryegrass (Lolium multiflorum); details: foliage application, 320 g/ha, three weeks after application
Outline: as §5

[25] = system: green foxtail; test: Test Example 5: herbicidal effect by foliage application, plastic box (Table 20, symbol G); type: in vivo, green foxtail (Setaria viridis); details: foliage application, 320 g/ha, three weeks after application
Outline: as §5

[26] = system: barnyard grass; test: Test Example 5: herbicidal effect by foliage application, plastic box (Table 20, symbol H); type: in vivo, barnyard grass (Echinochloa crus-galli); details: foliage application, 320 g/ha, three weeks after application
Outline: as §5

[27] = system: southern crabgrass; test: Test Example 5: herbicidal effect by foliage application, plastic box (Table 20, symbol F); type: in vivo, southern crabgrass (Digitaria ciliaris); details: foliage application, 320 g/ha, three weeks after application
Outline: as §5

[28] = system: persian speedwell; test: Test Example 5: herbicidal effect by foliage application, plastic box (Table 20, symbol R); type: in vivo, Persian speedwell (Veronica persica); details: foliage application, 320 g/ha, three weeks after application
Outline: as §5

[29] = system: windgrass; test: Test Example 5: herbicidal effect by foliage application, plastic box (Table 20, symbol L); type: in vivo, windgrass (Apera spica-venti); details: foliage application, 320 g/ha, three weeks after application
Outline: as §5

[30] = system: lambsquarters; test: Test Example 5: herbicidal effect by foliage application, plastic box (Table 20, symbol O); type: in vivo, lambsquarters (Chenopodium album); details: foliage application, 320 g/ha, three weeks after application
Outline: as §5

[31] = system: wild oat; test: Test Example 5: herbicidal effect by foliage application, plastic box (Table 20, symbol I); type: in vivo, wild oat (Avena fatua); details: foliage application, 320 g/ha, three weeks after application
Outline: as §5

[32] = system: velvetleaf; test: Test Example 5: herbicidal effect by foliage application, plastic box (Table 20, symbol M); type: in vivo, velvetleaf (Abutilon theophrasti); details: foliage application, 320 g/ha, three weeks after application
Outline: as §5

[33] = amount of applied herbicide 320 g/ha

With `CCCC(=O)Oc1c(C)nn(C)c(=O)c1-c1c(-c2ccc(C(F)(F)F)cc2F)sc2ccc(F)cc12` [2-355] the “Herbicidal effect on B: Japanese bulrush (grade 0-5)” value [1] was 3 (Herbicidal rate of 40% or more and less than 70%), the “herbicidal effect on H: barnyard grass” value [2, 33] was 5 (Herbicidal rate of 90% or more (almost completely withered)) and the “herbicidal effect, I: wild oat” value [3] was 0 (Herbicidal rate of 5% or less (almost no effect)). For the same molecule, the “herbicidal effect, F: southern crabgrass” value [4] was 0 (Herbicidal rate of 5% or less (almost no effect)), the “herbicidal effect rating, B: Japanese bulrush” value [5] was 3 (Herbicidal rate of 40% or more and less than 70%) and the “herbicidal effect, O: lambsquarters” value [6] was 3 (Herbicidal rate of 40% or more and less than 70%). For the same molecule, the “Herbicidal effect on C: oval-leafed pondweed (grade 0-5)” value [7] was 0 (Herbicidal rate of 5% or less (almost no effect)), the “herbicidal effect on E: rice flat sedge” value [8, 33] was 5 (Herbicidal rate of 90% or more (almost completely withered)) and the “herbicidal effect, N: redroot pigweed” value [9] was 0 (Herbicidal rate of 5% or less (almost no effect)). The “herbicidal effect, K: Italian ryegrass” value [10] was 4 (Herbicidal rate of 70% or more and less than 90%), the “herbicidal effect, G: green foxtail” value [11] was 0 (Herbicidal rate of 5% or less (almost no effect)) and the “herbicidal effect, L: windgrass” value [12] was 3 (Herbicidal rate of 40% or more and less than 70%). The “herbicidal effect, M: velvetleaf” value [13] was 0 (Herbicidal rate of 5% or less (almost no effect)), the “herbicidal effect, R: persian speedwell” value [14] was 3 (Herbicidal rate of 40% or more and less than 70%) and the “herbicidal effect, H: barnyard grass” value [15] was 0 (Herbicidal rate of 5% or less (almost no effect)). The “herbicidal effect on D: Chinese sprangletop” value [16, 33] was 5 (Herbicidal rate of 90% or more (almost completely withered)), the “herbicidal effect rating, C: oval-leafed pondweed” value [17] was 3 (Herbicidal rate of 40% or more and less than 70%) and the “herbicidal effect, J: blackgrass” value [18] was 0 (Herbicidal rate of 5% or less (almost no effect)). The “herbicidal effect rating, A: late watergrass” value [19] was 3 (Herbicidal rate of 40% or more and less than 70%), the “herbicidal effect, P: chickweed” value [20] was 3 (Herbicidal rate of 40% or more and less than 70%) and the “Herbicidal effect on A: late watergrass (grade 0-5)” value [21] was 4 (Herbicidal rate of 70% or more and less than 90%).

For `Cc1nn(C)c(=O)c(-c2c(-c3ccc(Cl)cc3)sc3cc(F)c(F)cc23)c1O` [5-082], the “herbicidal effect on blackgrass (J)” value [22] was 3 (Herbicidal rate of 40% or more and less than 70%), the “herbicidal effect on barnyard grass (H)” value ([2]; 320 g/ha) was 5 (Herbicidal rate of 90% or more (almost completely withered)) and the “Q: false cleavers, herbicidal effect grade” value [23] was 3 (Herbicidal rate of 40% or more and less than 70%). For the same molecule, the “herbicidal effect on Italian ryegrass (K)” value [24] was 5 (Herbicidal rate of 90% or more (almost completely withered)), the “I: wild oat, herbicidal effect grade” value [3] was 0 (Herbicidal rate of 5% or less (almost no effect)) and the “F: southern crabgrass, herbicidal effect grade” value [4] was 0 (Herbicidal rate of 5% or less (almost no effect)). The “herbicidal effect on green foxtail (G)” value [25] was 3 (Herbicidal rate of 40% or more and less than 70%), the “herbicidal effect on barnyard grass (H)” value [26] was 4 (Herbicidal rate of 70% or more and less than 90%) and the “O: lambsquarters, herbicidal effect grade” value [6] was 3 (Herbicidal rate of 40% or more and less than 70%). For the same molecule, the “herbicidal effect on southern crabgrass (F)” value [27] was 3 (Herbicidal rate of 40% or more and less than 70%), the “herbicidal effect on persian speedwell (R)” value [28] was 5 (Herbicidal rate of 90% or more (almost completely withered)) and the “herbicidal effect on rice flat sedge (E)” value ([8]; 320 g/ha) was 4 (Herbicidal rate of 70% or more and less than 90%). The “herbicidal effect on windgrass (L)” value [29] was 5 (Herbicidal rate of 90% or more (almost completely withered)), the “herbicidal effect on lambsquarters (O)” value [30] was 5 (Herbicidal rate of 90% or more (almost completely withered)) and the “herbicidal effect on wild oat (I)” value [31] was 3 (Herbicidal rate of 40% or more and less than 70%). For the same molecule, the “N: redroot pigweed, herbicidal effect grade” value [9] was 4 (Herbicidal rate of 70% or more and less than 90%), the “K: Italian ryegrass, herbicidal effect grade” value [10] was 4 (Herbicidal rate of 70% or more and less than 90%) and the “herbicidal effect on velvetleaf (M)” value [32] was 5 (Herbicidal rate of 90% or more (almost completely withered)). The “G: green foxtail, herbicidal effect grade” value [11] was 1 (Herbicidal rate of 5% or more and less than 20%), the “L: windgrass, herbicidal effect grade” value [12] was 4 (Herbicidal rate of 70% or more and less than 90%) and the “M: velvetleaf, herbicidal effect grade” value [13] was 0 (Herbicidal rate of 5% or less (almost no effect)). For the same molecule, the “H: barnyard grass, herbicidal effect grade” value [15] was 0 (Herbicidal rate of 5% or less (almost no effect)), the “herbicidal effect on Chinese sprangletop (D)” value ([16]; 320 g/ha) was 4 (Herbicidal rate of 70% or more and less than 90%) and the “J: blackgrass, herbicidal effect grade” value [18] was 0 (Herbicidal rate of 5% or less (almost no effect)).
